This experiment deals with T1, human RORγ-LBD (Homo sapiens, UniProt P51449).
T1 construct: made in house; host or cells: E. coli (BL-21)
T1 sequence (P51449 262-518): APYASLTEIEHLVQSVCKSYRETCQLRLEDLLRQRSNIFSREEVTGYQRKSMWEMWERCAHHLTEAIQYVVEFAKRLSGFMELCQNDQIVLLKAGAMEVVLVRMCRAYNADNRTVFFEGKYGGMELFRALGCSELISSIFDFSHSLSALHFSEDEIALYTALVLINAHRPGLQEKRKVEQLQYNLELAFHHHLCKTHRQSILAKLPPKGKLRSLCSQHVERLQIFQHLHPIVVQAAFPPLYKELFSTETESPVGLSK
Briefly: ROR gamma coactivator peptide recruitment Alphascreen assay (RORγ-LBD binding to GRIP1 coactivator peptide). Format: biochemical. Conditions: 5 nM human RORγ-LBD, 30 nM 7-β-hydroxycholesterol, 50 nM biotinylated GRIP1 coactivator peptide, overnight incubation at room temperature; read-out: result (pIC50, RORγ coactivator peptide recruitment Alphascreen assay) (converted). The essentials: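 His/Flag-tagged human RORγ-LBD (aa 262-518, E. coli-expressed, 5 nM) with agonist 7-β-hydroxycholesterol (30 nM) and biotinylated GRIP1 LXXLL peptide (50 nM) in HEPES pH 7.4 buffer, 2.5% DMSO. Compound 1-in-2 dilutions; Alphascreen bead signal read after overnight incubation at room temperature; pIC50 calculated.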
For orientation: Bead proximity is the source of the signal in Alpha formats.
As for `Cc1cc(Cl)c(C(=O)CN(CC2CCC(C)(C)CC2)C(=O)c2cnn([C@H]3CC[C@H](C(=O)O)CC3)c2C(F)(F)F)c(Cl)c1` [Example 535, trans-4-(4-((2-(2,6-dichloro-4-methylphenyl)-2-oxoethyl)((4,4-dimethylcyclohexyl)methyl)carbamoyl)-5-(trifluoromethyl)-1H-pyrazol-1-yl)cyclohexanecarboxylic acid], the IC50 was 1.32 nM.

`Cc1cc(Cl)c(C(=O)CN(C(=O)c2cnn([C@H]3CC[C@H](C(=O)O)CC3)c2C(F)(F)F)[C@H]2C[C@H](C(C)(C)C)C2)c(Cl)c1` [Example 536, trans-4-(4-((2-(2,6-dichloro-4-methylphenyl)-2-oxoethyl)(trans-3-(2-methyl-2-propanyl)cyclobutyl)carbamoyl)-5-(trifluoromethyl)-1H-pyrazol-1-yl)cyclohexanecarboxylic acid]: the IC50 is 9.55 nM.

Regarding `Cc1cc(Cl)c(C(=O)CN(CC2CCCCC2)C(=O)c2cnn([C@H]3CC[C@H](C(=O)O)CC3)c2C(F)(F)F)c(Cl)c1` [Example 537, trans-4-(4-((cyclohexylmethyl)(2-(2,6-dichloro-4-methylphenyl)-2-oxoethyl)carbamoyl)-5-(trifluoromethyl)-1H-pyrazol-1-yl)cyclohexanecarboxylic acid], the IC50 is 2.24 nM.

For the compound `CC(C)(C)CN(CC(=O)c1c(Cl)cnc2ccccc12)C(=O)c1cnn([C@H]2CC[C@](C)(C(=O)O)CC2)c1C(F)(F)F` [Example 538, trans-4-(4-((2-(3-chloro-4-quinolinyl)-2-oxoethyl)(2,2-dimethylpropyl)carbamoyl)-5-(trifluoromethyl)-1H-pyrazol-1-yl)-1-methylcyclohexanecarboxylic acid], the IC50 is 112 nM.

Consider `O=C(CN(Cc1ccc(F)cc1)C(=O)c1cnn([C@H]2CC[C@H](C(=O)O)CC2)c1C(F)(F)F)c1c(Cl)cnc2ccccc12` [Example 539, trans-4-(4-((2-(3-chloro-4-quinolinyl)-2-oxoethyl)(4-fluorobenzyl)carbamoyl)-5-(trifluoromethyl)-1H-pyrazol-1-yl)cyclohexanecarboxylic acid], for which the IC50 is 89.1 nM.

On to `O=C(CN(Cc1ccc(Cl)cc1)C(=O)c1cnn([C@H]2CC[C@H](C(=O)O)CC2)c1C(F)(F)F)c1c(Cl)ccc(F)c1Cl` [Example 541, trans-4-(4-((4-chlorobenzyl)(2-(2,6-dichloro-3-fluorophenyl)-2-oxoethyl)carbamoyl)-5-(trifluoromethyl)-1H-pyrazol-1-yl)cyclohexanecarboxylic acid], for which the IC50 was 3.16 nM.

Take `Cc1cc(Cl)c(C(=O)CN(CC(C)(C)C)C(=O)c2cnn([C@H]3CC[C@H](C(=O)O)CC3)c2C(F)(F)F)c(Cl)n1` [Example 542, trans-4-(4-((2-(2,4-dichloro-6-methyl-3-pyridinyl)-2-oxoethyl)(2,2-dimethylpropyl)carbamoyl)-5-(trifluoromethyl)-1H-pyrazol-1-yl)cyclohexanecarboxylic acid]: the IC50 is 79.4 nM.

Regarding `Cc1cc(Cl)c(C(=O)CN(Cc2ccc(Cl)cc2)C(=O)c2cnn([C@H]3CC[C@H](C(=O)O)CC3)c2C(F)(F)F)c(Cl)n1` [Example 543, trans-4-(4-((4-chlorobenzyl)(2-(2,4-dichloro-6-methyl-3-pyridinyl)-2-oxoethyl)carbamoyl)-5-(trifluoromethyl)-1H-pyrazol-1-yl)cyclohexanecarboxylic acid], the IC50 is 3.31 nM.

For `Cc1cc(C)n(CCN(Cc2ccc(Cl)cc2)C(=O)c2cnn([C@H]3CC[C@H](C(=O)O)CC3)c2C(F)(F)F)c(=O)c1` [Example 544, trans-4-(4-((4-chlorobenzyl)(2-(4,6-dimethyl-2-oxo-1(2H)-pyridinyl)ethyl)carbamoyl)-5-(trifluoromethyl)-1H-pyrazol-1-yl)cyclohexanecarboxylic acid], the IC50 is 3630 nM.

As for `CC(C)(C)CN(CC(=O)c1c(Cl)cccc1Cl)C(=O)c1cnn([C@H]2CC[C@H](C(=O)O)CC2)c1C(F)(F)F` [Example 545, trans-4-(4-((2-(2,6-dichlorophenyl)-2-oxoethyl)(2,2-dimethylpropyl)carbamoyl)-5-(trifluoromethyl)-1H-pyrazol-1-yl)cyclohexanecarboxylic acid], the IC50 was 4.9 nM.

As for `CC1(C)CCC(CN(CCc2c(Cl)cncc2Cl)C(=O)c2cnn([C@H]3CC[C@H](C(=O)O)CC3)c2C(F)(F)F)CC1` [Example 546, trans-4-(4-((2-(3,5-dichloro-4-pyridinyl)ethyl)((4,4-dimethylcyclohexyl)methyl)carbamoyl)-5-(trifluoromethyl)-1H-pyrazol-1-yl)cyclohexanecarboxylic acid], the IC50 is 11.2 nM.

Consider `CC(C)(C)CN(CCc1c(Cl)cncc1Cl)C(=O)c1cnn([C@H]2CC[C@H](C(=O)O)CC2)c1C(F)(F)F` [Example 547], for which the IC50 is 19.5 nM.

Turning to `CC(C)(C)C#CCN(CCc1c(Cl)cncc1Cl)C(=O)c1cnn([C@H]2CC[C@H](C(=O)O)CC2)c1C(F)(F)F` [Example 548, trans-4-(4-((2-(3,5-dichloro-4-pyridinyl)ethyl)(4,4-dimethyl-2-pentyn-1-yl)carbamoyl)-5-(trifluoromethyl)-1H-pyrazol-1-yl)cyclohexanecarboxylic acid], the IC50 was 11.7 nM.

On to `CC1(CN(CCc2c(Cl)cncc2Cl)C(=O)c2cnn([C@H]3CC[C@H](C(=O)O)CC3)c2C(F)(F)F)CCCCC1` [Example 549, trans-4-(4-((2-(3,5-dichloro-4-pyridinyl)ethyl)((1-methylcyclohexyl)methyl)carbamoyl)-5-(trifluoromethyl)-1H-pyrazol-1-yl)cyclohexanecarboxylic acid], for which the IC50 was 1.74 nM.

Regarding `CC1(C)CCC(N(CCc2c(Cl)cncc2Cl)C(=O)c2cnn([C@H]3CC[C@H](C(=O)O)CC3)c2C(F)(F)F)CC1` [Example 550, trans-4-(4-((2-(3,5-dichloro-4-pyridinyl)ethyl)(4,4-dimethylcyclohexyl)carbamoyl)-5-(trifluoromethyl)-1H-pyrazol-1-yl)cyclohexanecarboxylic acid], the IC50 was 21.4 nM.

For the compound `C[C@@]1(CN(CCc2c(Cl)cncc2Cl)C(=O)c2cnn([C@H]3CC[C@H](C(=O)O)CC3)c2C(F)(F)F)CCCO1` [Example 552, trans-4-(4-((2-(3,5-dichloro-4-pyridinyl)ethyl)(((2S)-2-methyltetrahydro-2-furanyl)methyl)carbamoyl)-5-(trifluoromethyl)-1H-pyrazol-1-yl)cyclohexanecarboxylic acid], the IC50 is 331 nM.

With `CC1(C)CC(CN(CCc2c(Cl)cncc2Cl)C(=O)c2cnn([C@H]3CC[C@H](C(=O)O)CC3)c2C(F)(F)F)C1` [Example 553, trans-4-(4-((2-(3,5-dichloro-4-pyridinyl)ethyl)((3,3-dimethylcyclobutyl)methyl)carbamoyl)-5-(trifluoromethyl)-1H-pyrazol-1-yl)cyclohexanecarboxylic acid], the IC50 was 2.75 nM.

With `CC1(C)C[C@H]1CN(CCc1c(Cl)cncc1Cl)C(=O)c1cnn([C@H]2CC[C@H](C(=O)O)CC2)c1C(F)(F)F` [Example 554, trans-4-(4-((2-(3,5-dichloro-4-pyridinyl)ethyl)(((1R)-2,2-dimethylcyclopropyl)methyl)carbamoyl)-5-(trifluoromethyl)-1H-pyrazol-1-yl)cyclohexanecarboxylic acid], the IC50 is 7.08 nM.

The record behind these values is patent publication US9365522B2, “Pyrazole amide derivative” (AMGEN INC., priority 2015, dated 2016).
